23 compounds from ChEMBL document CHEMBL1147625, “HIV-1 integrase pharmacophore model derived from diverse classes of inhibitors” (Bioorg Med Chem Lett, 2004) can be followed below.

For orientation: IC50 means the concentration at which inhibition is half-maximal. Low values mean inhibition by little substance, high ones a need for much substance.

Bounds are passed on as bounds.

In this experiment the target is Human immunodeficiency virus type 1 integrase (Human immunodeficiency virus 1, UniProt Q7ZJM1).
Sequence of Human immunodeficiency virus type 1 integrase (Q7ZJM1 whole entry): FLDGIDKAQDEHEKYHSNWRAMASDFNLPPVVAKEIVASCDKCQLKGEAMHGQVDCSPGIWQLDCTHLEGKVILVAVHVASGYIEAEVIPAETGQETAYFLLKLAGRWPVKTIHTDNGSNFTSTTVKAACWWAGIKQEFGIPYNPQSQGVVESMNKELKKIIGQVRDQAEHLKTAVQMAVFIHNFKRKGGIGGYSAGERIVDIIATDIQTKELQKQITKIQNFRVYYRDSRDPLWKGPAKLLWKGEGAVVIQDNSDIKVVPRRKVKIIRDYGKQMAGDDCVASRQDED
Description: Inhibitory activity against HIV-1 integrase
With `[N-]=[N+]=NC1CC(N=[N+]=[N-])c2cc(/C(O)=C\C(=O)C(=O)O)ccc21` (stereo not drawn), half-maximal inhibition (IC50) required 0.36 µM.
`[N-]=[N+]=NC1CCC(N=[N+]=[N-])c2cc(/C(O)=C\C(=O)C(=O)O)ccc21` (stereo not drawn) gave an IC50 of 0.32 µM.
`N#CCCc1cccc(/C(O)=C\C(=O)C(=O)O)c1` had an IC50 of 1.5 µM.
In the case of `[N-]=[N+]=NCc1ccc(/C(O)=C\C(=O)C(=O)O)cc1CN=[N+]=[N-]`, the IC50 came to 0.26 µM.
As for `CC1C=C(NC(=O)C2=CC(NC(=O)C3=CC(NC(=O)c4ccc(C(=O)NC5=CC(C)C(C(=O)NC6=CC(C)C(C(=O)NC7=CC(C)C(C(=O)NCCC(=N)N)=C7)=C6)=C5)cc4)=CC3C)=CC2C)C=C1C(=O)NCCC(=N)N` (stereo not drawn), the figure is 0.09 µM; as for `COc1cc(C)c2c(c1C)OC(=O)c1c(C)c(Cl)c(O)c(C=O)c1O2`, 2.1 µM; as for `CC1=NN(C(=O)c2ccccc2O)C(=O)/C1=C\c1cccc(O)c1`, 7.4 µM.
As for `CCCCCc1cc(O)cc2c1Oc1c(C=O)c(O)c(Cl)c(C(=O)CCCC)c1C(=O)O2`, the figure is 33.6 µM; as for `O=C1C(O)=C(C(C2=C(O)C(=O)c3ccccc3C2=O)c2ccc(Cl)cc2)C(=O)c2ccccc21`, above 100 µM.
The compound `CC(CCC(=O)O)C1CC[C@H]2[C@@H]3C(OC(=O)/C=C/c4ccc(O)c(O)c4)CC4CC(OC(=O)/C=C/c5ccc(O)c(O)c5)CC[C@]4(C)[C@H]3CC(OC(=O)/C=C/c3ccc(O)c(O)c3)[C@]12C` (stereo partly drawn) had an IC50 of 0.97 µM.
As for `O=C(O)C(=O)/C=C(\O)c1cc(OCc2ccccc2)cc(OCc2ccccc2)c1`, the figure is 0.059 µM.
With `COC(=O)c1ccc(CC(=O)c2c(C)cc(O)c(C=O)c2O)c(C)c1O` the figure was 123 µM.
As for `CN(C)Cc1ccc2n1Cc1ccccc1SC2c1ccc(F)cc1` (stereo not drawn), the figure is 1000 µM; as for `O=C1c2ccccc2SCC2CSC(c3ccccc3)N12` (stereo not drawn), 322 µM.
With `O=C(NNCC(O)COc1ccccc1)c1ccccc1O` (stereo not drawn), the IC50 was above 200 µM.
As for `COc1cc(C(C2=C(O)C(=O)c3ccccc3C2=O)C2C(=O)c3ccccc3C(=O)C2O)cc(Br)c1O` (stereo not drawn), the figure is 20 µM.
As for `CC1C=C(NC(=O)C2=CC(NC(=O)C3=CC(NC(=O)c4ccc(C(=O)NC5=CC(C)C(C(=O)NC6=CC(C)C(C(=O)NC7=CC(C)C(C(=O)NCCC(=N)N)=C7)=C6)=C5)nc4)=CC3C)=CC2C)C=C1C(=O)NCCC(=N)N` (stereo not drawn), the figure is 0.1 µM; as for `CC1C=C(NC(=O)C2=CC(NC(=O)C3=CC(N(C)C(=O)c4ccc(C(=O)N(C)C5=CC(C)C(C(=O)NC6=CC(C)C(C(=O)NC7=CC(C)C(C(=O)NCCCN(C)C)=C7)=C6)=C5)cc4)=CC3C)=CC2C)C=C1C(=O)NCCCN(C)C` (stereo not drawn), 0.07 µM.
With `COc1ccc(/C=C2\C(=O)N(C(=O)c3ccccc3O)N=C2C)cc1`, the IC50 turned out to be 0.6 µM. Against the preceding compound, the IC50 is about 8.6-fold higher.
With `CC1=NN(C(=O)c2ccc(Cl)cc2)C(=O)/C1=C\c1ccc(O)cc1` the figure was above 293 µM; with `O=C(/C=C/c1ccc(O)c(O)c1)NCC(OC(=O)/C=C/c1ccc(O)c(O)c1)C(=O)O` (stereo not drawn), 0.37 µM; with `CC(Cc1ccc(O)c(O)c1)(C(=O)O)C(C)(Cc1ccc(O)c(O)c1)C(=O)O` (stereo in doubt; form 1), 0.44 µM.
`CC(Cc1ccc(O)c(O)c1)(C(=O)O)C(C)(Cc1ccc(O)c(O)c1)C(=O)O` (stereo in doubt; form 2): it took 0.23 µM to reach half-maximal inhibition (IC50).
